# Values quoted from earlier work in patent publication US20220378857A1, “COMPOSITION FOR THE CARDIOVASCULAR RISK REDUCTION” (NEILOS S.R.L., priority 2019, published 2022).
# Where two headings read alike, the source gives them in different places.
# [1] = 7.5 mg/die of active principle for 12 weeks
# [2] = 11.4 mg/die of monacolin for 8 weeks
structure (smiles),measurement,setting,value
"CC[C@H](C)C(=O)O[C@H]1C[C@@H](C)C=C2C=C[C@H](C)[C@H](CC[C@@H]3C[C@@H](O)CC(=O)O3)[C@H]21 [monacolin, monacolin k]",reduction in the levels of LDL cholesterol,[1],22%
same,reduction in the levels of total cholesterol,[1],16%
same,reduction in the levels of LDL cholesterol,[2],26%
same,reduction in the levels of total cholesterol,[2],20%
